The values below come from patent publication US20230263759A1, “PARENTERAL NUTRITION FORMULATION” (BAXTER INTERNATIONAL INC., priority 2020, published 2023).

Series [1] is described as follows: Stability of butyrate derivatives in PN compositions (sterilization, storage; GC-FID). It counts as physicochemical. The conditions noted are these: for free butyric acid released in the lipid chamber during sterilization: after compounding and sterilization of the bags. On the procedure: The concentration of arginine butyrate can be varied relatively broadly over the disclosed range.
Compositions used are described in Table 4 and Table 5. After compounding of the respective butyrate derivatives into the respective chambers of the bags and following sterilization, free butyric acid was measured in the lipid chamber (for tributyrin and DPBG compositions) and the butyrate content in the amino acid chamber was determined. […] In case of the amino acid chamber, the recovery of butyrate after sterilization corresponds to what was introduced. Accordingly, no deterioration of the salt occurred during or after sterilization. In addition, the stability of the composition over time (12 months, 25° C., 40% RH) was confirmed. The free butyric acid can be quantified by GC-FID, after sample preparation by liquid-liquid extraction of the lipid emulsion or directly from amino acid solution. These methods are known in the art.

Another series has as its system sIgA. Nature of the series: IgA quantification (sandwich ELISA of intestinal washings). The format is in vivo, pig. Particulars: 10 mmol/L; compared to standard PN (s-PN). On the procedure: Small intestine probes for IgA level determination were obtained by flushing the small intestine with chilled HBSS (Hank's Balanced Salt Solution). Nasal and bronchoalveolar washings for measurement of respiratory tract IgA levels were obtained by lavage with 1 mL phosphate-buffered saline solution under anesthesia. The washings were stored in a −80° C. freezer until IgA analysis. IgA was measured in small intestinal and respiratory tract washings by sandwich enzyme-linked immunosorbent assay using a polyclonal goat anti-mouse IgA (Sigma) to coat the plate, a purified mouse IgA (Zymed Laboratories, San Francisco, Calif.) as the standard, and a horseradish peroxidase-conjugated goat anti-mouse IgA (Sigma) Results are shown in FIG. 13.

Series [2] has as its system cytokines Il-1β, Il-6, TNF-α, Il-8, Il-10. Put plainly: Cytokine quantification in jejunal and ileal samples. Particulars: compared to standard PN (s-PN). It counts as in vivo, pig. The protocol:
Digestive Diseases and Sciences 2002; 47:2049-2055. Jejunal and ileal samples were homogenized in double-distilled water, and the Bradford protein assay (Biorad, Hercules, Calif., USA) was performed on homogenate and plasma samples. Protein (30 μg) from each sample was denatured by boiling, and proteins were separated by size using 12.5% sodium dodecyl sulfate polyacrylamide gel electrophoresis. Separated proteins were transferred to polyvinylidene difluoride membranes (Biorad) using a semidry transfer apparatus (Biorad). Western blot analysis for TNF-alpha, IL-1beta, Il-10 and IL-6 was performed using porcine-specific polyclonal antibodies (Endogen, Woburn, Mass., USA). A mouse anti-pig monoclonal TNF-alpha antibody was used to detect TNF-alpha ([…]) Rabbit anti-pig polyclonal antibodies specific for IL-1beta and IL-6 were used to detect IL-1beta ([…]), Il-10 ([…]) and IL-6 ([…]). Membranes were developed using the Opti-4CN kit (Biorad) and photographed using the FOTO/Analyst Image Analysis System (Fotodyne, Inc., Hart-land, Wisconsin, USA). Densitometry of TNF-alpha, IL-1beta, IL-6, and Il-10 was performed using Collage Image Analysis Software 4.0 (Fotodyne, Inc.). Results are shown in FIG. 15 (Il-6), FIG. 16 (Ill-beta), FIG. 17 (TNF-alpha) and FIG. 18 (Il-10).

Series [3] concerns metastatic colorectal cancer patients. Particulars: aqueous solution, pH 7.7; phase I clinical trial; cited from earlier work.

With `CCCCCCCCCCCCCCCC(=O)OCC(COC(=O)CCC)OC(=O)CCCCCCCCCCCCCCC` (stereo not drawn) [DPBG, 1,2-Dipalmitoyl 3-butyryl glycerol], in series [1], the “free butyric acid released in the lipid chamber during sterilization” value is “only very limited amounts”.

Turning to “L-arginine, butanoate (3:4) [Arginine Butyrate]”, the “Jejunal sIgA Concentration” value with sIgA is “+++^3 (+++ indicate P < 0.01)”. In series [2] (10 mmol/L), the “Ileal Cytokine Concentration (less pro-inflammatory cytokines Il-1β, Il-6, TNF-α)” value is “+++ (+++ indicate P < 0.01)”; the “Ileal Cytokine Concentration (more anti-inflammatory cytokines Il-8, Il-10)” value is listed as “+^4”; the “Jejunal Cytokine Concentration (less pro-inflammatory cytokines Il-1β, Il-6, TNF-α)” value is “+++ (+++ indicate P < 0.01)”; the “Jejunal Cytokine Concentration (more anti-inflammatory cytokines Il-8, Il-10)” value is “++ (++ indicates P < 0.05)”. Also, in series [1] (25° C. and 40% relative humidity (RH), also stable during production, sterilization), the “shelf-life over which stable in the amino acid formulation” value is listed as “at least 12 months”. Moreover, in series [3], the tolerated dose is recorded as 3 g/kg/day.

Regarding `CCCC(=O)OCC(COC(=O)CCC)OC(=O)CCC` [Tributyrin], in series [2] (10 mmol/L), the “Ileal Cytokine Concentration (less pro-inflammatory cytokines Il-1β, Il-6, TNF-α)” value was “++ (++ indicates P < 0.05)”; the “Ileal Cytokine Concentration (more anti-inflammatory cytokines Il-8, Il-10)” value is “+”; the “Jejunal Cytokine Concentration (less pro-inflammatory cytokines Il-1β, Il-6, TNF-α)” value is reported as “+++ (+++ indicate P < 0.01)”. Also, in series [2] (30 mmol/L), the “Ileal Cytokine Concentration (less pro-inflammatory cytokines Il-1β, Il-6, TNF-α)” value is on record as “++ (++ indicates P < 0.05)”; the “Jejunal Cytokine Concentration (less pro-inflammatory cytokines Il-1β, Il-6, TNF-α)” value is given as “+++ (+++ indicate P < 0.01)”; the “Jejunal Cytokine Concentration (more anti-inflammatory cytokines Il-8, Il-10)” value is “+”. In addition, in series [1], the “free butyric acid released in the lipid chamber during sterilization” value is “only very limited amounts”.
